Experimental data from patent US20210338686A1, “COMBINATION CANCER THERAPY WITH PENTAAZA MACROCYCLIC RING COMPLEX AND PLATINUM-BASED ANTICANCER AGENT” (Galera Labs, LLC, priority 2018, published 2021).

Tests used:
[1] = tested on: experimental model of colitis; settings: rats; Cuzzocrea et al. 2001; cited from earlier work
[2] = tested on: acute, radiation-induced oral mucositis; settings: hamster oral mucositis; Murphy et al. 2008; cited from earlier work
[3] = tested on: collagen-induced arthritis; settings: rat collagen-induced arthritis; Salvemini et al. 2001; cited from earlier work
[4] = tested on: lethal total body irradiation; settings: adult mice, Thompson et al. 2010; cited from earlier work
inflammation = settings: rat model; Salvemini et al. 1999; cited from earlier work
[5] = tested on: cisplatin-induced acute kidney injury (AKI) model, male C57BL/6J mice; test: Cisplatin-induced acute kidney injury (AKI) model in mice; assay type: in vivo
Text: 4 month old male C57BL/6J mice (young) were purchased from Jackson Laboratories and 18 month old mice (old) were obtained as collaboration with Dr. Amy Sindler (University of Iowa) from the National institute of Aging. All mice were maintained in accordance with ACURF approval #4121235 at the University of Iowa Animal Care facility. Mice were maintained on normal diets and water ad libitum through the course of the experiment.
Animals were weighed every other day following the start of treatment with GC4419.

[6] = tested on: athymic female Nu/Nu (nude) mice implanted with SQ20B human head and neck squamous cell carcinoma cells; test: Cisplatin-induced hematotoxicity in nude mice bearing SQ20B tumors; assay type: in vivo; settings: 10 mg/kg GC4419 every day added to cisplatin + IR
Method: 7 week old athymic female Nu/Nu (nude) mice were implanted in a hind leg with SQ20B human head and neck squamous cell carcinoma cells. […] Mice were assessed for blood counts by tail vein blood collection either 2 days or 2 weeks after the treatment period.

[7] = tested on: PARP in H1299 (wild type) NSCLC cells; test: PARP activation in H1299 (wild type) cells (Western blot); assay type: cell-based, human; settings: 24 hr
[8] = tested on: H460 human non-small cell lung carcinoma (NSCLC) cells; test: Survival of H460 cells in culture with GC4419 and cisplatin; assay type: cell-based; settings: 24 μM GC4419 added to cisplatin (indicated concentrations), 120 hrs, vs cisplatin alone; FIG. 1
Method: After 120 hrs the surviving fraction of cells was determined.

[9] = tested on: H460 and H1299 (wild type) cells; test: Hydrogen peroxide (P0-1 probe); assay type: cell-based, human; settings: FIGS. 9A-9D
[10] = tested on: PARP (poly (ADP ribosyl) polymerase) in H460 NSCLC cells; test: PARP activation in H460 cells (Western blot, 89 kd active / 116 kd inactive form); assay type: cell-based, human; settings: 24 hr
Text: PARP is a nuclear enzyme involved in DNA repair of single strand breaks and is activated following cell stress including chemotherapy and irradiation.

PARP in H1299CAT cells = test: PARP activation in H1299CAT cells with doxycycline induction of CAT overexpression; assay type: cell-based, human; settings: CAT induced with doxycycline, 24 hr
Text: When treated with doxcycline, H1299CAT cells express greater levels of human catalase (CAT) than the “parent” cells, H1299 (wild type), eliminating all or part of the H2O2 generated from superoxide by GC4419 or other Mn pentaazamacrocyclic dismutase mimetcs.

[11] = tested on: oral mucositis in head-and-neck cancer patients; settings: head-and-neck cancer patients undergoing chemoradiation therapy; Anderson 2015; cited from earlier work
[12] = tested on: VEGFr inhibitor-induced pulmonary disease; settings: rat model; Tuder et al. 2003; cited from earlier work
[13] = tested on: H460 and H1299 (wild type) cells; test: Mitochondrial superoxide (MitoSOX probe, flow cytometer); assay type: cell-based, human; settings: FIGS. 8A-8D
[14] = tested on: H1299 human NSCLC cells, modified to inducibly overexpress catalase (CAT) (H1299CAT); test: Survival of H1299CAT cells with GC4419, cisplatin and catalase overexpression; assay type: cell-based; settings: 24 μM GC4419 added to cisplatin, 120 hrs, FIG. 2
Text: CAT overexpression in this line (H1299CAT) was induced by administration of doxycycline, which turned on transcription of the inserted catalase genes.

[15] = tested on: H460 and H1299 (wild type) cells; test: Total reactive oxygen species (CellROX probe, flow cytometer); assay type: cell-based, human; settings: FIGS. 7A-7D
Method: After the treatments and incubations CellROX fluorogenic probes for total ROS were added for 30 minutes continued incubation and the CellROX signal was measured using a flow cytometer.

[16] = 10 mg/kg GC4419 daily from 4 days prior to 10 mg/kg cisplatin, 72 hours after cisplatin, FIG. 10A
[17] = 24 μM GC4419, both cancer cell lines
[18] = 1 μM cisplatin or cisplatin plus 6 Gy IR

SMILES: [Cl-].[Cl-].[Mn+2].c1cc2nc(c1)CN[C@@H]1CCCC[C@H]1NCCN[C@@H]1CCCC[C@H]1NC2 [GC4403]
- injury to the colon [1]: very significantly reduce the injury to the colon
- radiation damage [2]: attenuate the radiation damage
- joint disease [3]: prevent joint disease
- radiation damage [4]: attenuate the radiation damage
- inflammation (inflammation): inhibit inflammation

SMILES: [Cl][Mn][Cl].c1cc2nc(c1)CN[C@H]1CCCC[C@@H]1NCCN[C@H]1CCCC[C@@H]1NC2 [GC4419]
- survival ([5]; 10 mg/kg GC4419 daily + 10 mg/kg cisplatin, old mice, FIG. 10D): prevented cisplatin mortality in the old mice
- body weight ([5]; 10 mg/kg GC4419 daily + 10 mg/kg cisplatin, young and old mice, FIG. 10C): reduced the amount of weight loss in both sets of mice
- kidney injury biomarkers KIM1 and NGAL ([5]; 10 mg/kg GC4419 daily + 10 mg/kg cisplatin, FIG. 10B): prevented that injury
- creatinine level [5, 16]: completely prevented these increases
- whole blood urea nitrogen (BUN) level [5, 16]: completely prevented these increases
- leukocyte (WBC) and lymphocyte count ([6]; 2 days and 2 weeks after the end of treatment, FIG. 11B): stimulated leukocyte (WBC) and proportionally lymphocyte subset production
- neutrophil percentage ([6]; FIG. 11C): maintained neutrophil percentage at apparently normal levels
- eosinophil percentage ([6]; FIG. 11D): maintained eosinophil percentage at apparently normal levels
- platelets ([6]; two days after the end of treatments, FIG. 11A): significantly restored platelet levels
- PARP activity (ratio of 89 kd active form to 116 kd inactive form) ([7]; 24 μM GC4419 added to 10 μM cisplatin, vs cisplatin, FIG. 4): further and significantly p<0.01) increased PARP activity
- PARP activity (ratio of 89 kd active form to 116 kd inactive form) ([7]; 24 μM GC4419 added to 6 Gy IR + 1 μM cisplatin, FIG. 6A): significantly increased (p<0.0.05)
- PARP activity (ratio of 89 kd active form to 116 kd inactive form) ([7]; 24 μM GC4419 added to 6 Gy IR, vs radiation alone, FIG. 6A): significantly increased PARP activity over that seen with radiation alone
- surviving fraction of cells [8]: decreased the surviving fraction of H460 cells
- basal levels of H2O2 [9, 17]: significantly increases both the basal levels of H2O2
- H2O2 ([9]; 24 μM GC4419 added to cisplatin or cisplatin plus IR, both cancer cell lines): significantly further increases the increase in H2O2
- PARP activity (ratio of 89 kd active form to 116 kd inactive form) ([10]; 24 μM GC4419 added to 1 μM cisplatin, vs cisplatin, FIG. 3): further and significantly (p<0.01) increased PARP activity
- PARP activity (ratio of 89 kd active form to 116 kd inactive form) ([10]; 24 μM GC4419 added to 6 Gy IR + 1 μM cisplatin, FIG. 5): significantly increased (p<0.01)
- PARP activity (ratio of 89 kd active form to 116 kd inactive form) ([10]; 24 μM GC4419 added to 6 Gy IR, vs radiation alone, FIG. 5): significantly increased PARP activity over that seen with radiation alone
- PARP activation response to cisplatin (PARP in H1299CAT cells; 24 μM GC4419 + 1 μM cisplatin, p<0.01, FIG. 6B): reduced the PARP activation response
- PARP activation response to IR+cisplatin (PARP in H1299CAT cells; 24 μM GC4419 + 6 Gy IR + 1 μM cisplatin, p<0.001, FIG. 6C): reduced the PARP activation response
- PARP activation response to IR (PARP in H1299CAT cells; 24 μM GC4419 + 6 Gy IR, p<0.05, FIG. 6C): reduced the PARP activation response
- oral mucositis [11]: reduce oral mucositis
- VEGFr inhibitor-induced pulmonary disease [12]: attenuate VEGFr inhibitor-induced pulmonary disease
- basal levels of mitochondrial superoxide (MitoSOX signal) [13, 17]: significantly reduced the basal levels of mitochondrial superoxide
- mitochondrial superoxide (MitoSOX signal) ([13]; 24 μM GC4419 added to cisplatin or cisplatin plus IR): significantly reduced the increase in mitochondrial superoxide
- surviving fraction of cells ([14]; with CAT overexpression (doxycycline induced)): abrogated the GC4419 contribution to cisplatin response
- surviving fraction of cells ([14]; without CAT overexpression (wt), vs cisplatin alone): decreased the surviving fraction
- total ROS (CellROX signal) ([15]; 24 μM GC4419 added to cisplatin therapy): synergistic effect on total ROS
- total ROS (CellROX signal) ([15]; 24 μM GC4419 used alone, either cancer cell line): little effect on total ROS

SMILES: N.N.[Cl][Pt][Cl] [cisplatin, reference compound]
- H2O2 [9, 18]: increase in H2O2
- mitochondrial superoxide (MitoSOX signal) [13, 18]: increase in mitochondrial superoxide
- total ROS (CellROX signal) [15, 18]: increased total ROS
